Experimental data: article PMC10599993, “The PTPN2/PTPN1 inhibitor ABBV-CLS-484 unleashes potent anti-tumour immunity” (Nature, 2023)

Assays:
Experiment in all cases: biochemical
Design in all cases: Safety pharmacology off-target panel at Eurofins, radioligand binding with agonist or antagonist radioligand (Supplementary Table 2)
[1] = molecular target: T1, Norepinephrine transporter (Homo sapiens, UniProt P23975); conditions: antagonist radioligand
T1 construct: gene SLC6A2
Protocol: (§1) Wide-range phosphatase, kinase and preclinical safety pharmacology off-target activity screens were conducted at Eurofins (Extended Data Table 5 and Supplementary Tables 1 and 2). A small phosphatase panel was developed at AbbVie to assess IC50 values on select phosphatases. The following enzymes used in the phosphatase selectivity panel were purchased from Eurofins: PTPN1 (PTP1B; 14–621), PTPN2 (TC-PTP; 14–646), PTPN9 (14–592), SHP1 (14–591) and SHP2 (14–622). The catalytic activity of the phosphatase was monitored using the small-molecule substrate DiFMUP (ThermoFisher) in a fluorescence assay format. In brief, the phosphatase reactions were performed at room temperature in the following assay buffer: 50 mM HEPES, pH 7.2, 100 mM NaCl, 1 mM EDTA, 0.005% Tween-20 and 5 mM TCEP. Each phosphatase was incubated with increasing concentrations of AC484 for 5 min, after which the substrate DiFMUP was added and incubated at 25 °C for 30 min. The final concentration of the enzyme and substrate was maintained at 0.5 nM and 5 μM, respectively, in all the assays. The reaction was then quenched by the addition of a 100 μM solution of bpV(Phen) (Enzo Life Sciences). The fluorescence signal was monitored using an Envision microplate reader (Perkin-Elmer) using excitation and emission wavelengths of 340 nm and 450 nm, respectively. The dose–response curves for the inhibitors were analysed using normalized IC50 regression curve fitting with control-based normalization. Supplementary file 41586_2023_6575_MOESM4_ESM.xlsx: Supplementary Table 2 AC484 receptor selectivity screen.

CB2 = molecular target: T2, CB2 (Homo sapiens, UniProt P34972); conditions: agonist radioligand
T2 construct: gene CNR2
T2 sequence (P34972 whole entry): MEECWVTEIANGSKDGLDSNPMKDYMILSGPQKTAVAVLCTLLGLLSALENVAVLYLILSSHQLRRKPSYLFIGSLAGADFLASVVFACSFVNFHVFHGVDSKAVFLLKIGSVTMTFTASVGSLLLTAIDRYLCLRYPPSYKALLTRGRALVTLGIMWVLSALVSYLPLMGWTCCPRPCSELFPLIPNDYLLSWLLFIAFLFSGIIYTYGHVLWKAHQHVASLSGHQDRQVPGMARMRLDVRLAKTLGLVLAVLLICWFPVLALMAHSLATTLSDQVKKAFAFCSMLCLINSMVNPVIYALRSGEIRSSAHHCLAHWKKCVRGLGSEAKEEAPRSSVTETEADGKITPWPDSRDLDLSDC
Protocol: as §1

5-HT2A = molecular target: T3, 5-HT2A (Homo sapiens, UniProt P28223); conditions: antagonist radioligand
T3 construct: gene HTR2A
Protocol: as §1

AT1 (h) = molecular target: T4, AT1 (h) (Homo sapiens, UniProt P30556); conditions: antagonist radioligand
T4 construct: gene AGTR1
Protocol: as §1

V1a = molecular target: T5, V1a (Homo sapiens, UniProt P37288); conditions: agonist radioligand
T5 construct: gene AVPR1A
Protocol: as §1

NK2 = molecular target: T6, NK2 (Homo sapiens, UniProt P21452); conditions: agonist radioligand
T6 construct: gene TACR2
Protocol: as §1

5-HT7 = molecular target: T7, 5-HT7 (Homo sapiens, UniProt P34969); conditions: agonist radioligand
T7 construct: gene HTR7
T7 sequence (P34969 whole entry): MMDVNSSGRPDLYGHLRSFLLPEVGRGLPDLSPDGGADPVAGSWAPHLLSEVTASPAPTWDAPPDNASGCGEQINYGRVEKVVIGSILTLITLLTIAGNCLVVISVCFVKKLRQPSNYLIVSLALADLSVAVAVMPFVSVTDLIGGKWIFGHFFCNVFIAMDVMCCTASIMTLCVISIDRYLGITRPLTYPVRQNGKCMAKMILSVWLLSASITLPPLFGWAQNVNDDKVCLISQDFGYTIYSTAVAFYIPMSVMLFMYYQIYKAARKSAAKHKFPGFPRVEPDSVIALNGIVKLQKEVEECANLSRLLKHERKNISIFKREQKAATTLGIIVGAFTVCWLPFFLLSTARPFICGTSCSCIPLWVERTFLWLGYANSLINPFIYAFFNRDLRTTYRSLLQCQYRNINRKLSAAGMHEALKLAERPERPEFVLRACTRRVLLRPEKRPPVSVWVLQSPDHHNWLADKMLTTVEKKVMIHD
Protocol: as §1

5-HT2B = molecular target: T8, 5-HT2B (Homo sapiens, UniProt P41595); conditions: agonist radioligand
T8 construct: gene HTR2B
Protocol: as §1

b2 (h) = molecular target: T9, b2 (h) (Homo sapiens, UniProt P07550); conditions: antagonist radioligand
T9 construct: gene ADRB2
T9 sequence (P07550 whole entry): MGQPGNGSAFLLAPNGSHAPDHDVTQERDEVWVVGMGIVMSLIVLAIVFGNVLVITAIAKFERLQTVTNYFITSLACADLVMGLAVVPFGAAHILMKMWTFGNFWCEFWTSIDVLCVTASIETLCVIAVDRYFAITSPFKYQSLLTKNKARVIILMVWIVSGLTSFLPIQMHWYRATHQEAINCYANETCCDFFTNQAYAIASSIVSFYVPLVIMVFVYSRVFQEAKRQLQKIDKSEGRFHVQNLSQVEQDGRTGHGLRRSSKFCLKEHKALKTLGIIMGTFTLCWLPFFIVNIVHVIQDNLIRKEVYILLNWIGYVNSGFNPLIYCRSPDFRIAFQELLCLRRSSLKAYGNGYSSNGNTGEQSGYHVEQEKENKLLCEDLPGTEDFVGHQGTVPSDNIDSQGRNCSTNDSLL
Protocol: as §1

A3 (h) = molecular target: T10, A3 (h) (Homo sapiens, UniProt P0DMS8); conditions: agonist radioligand
T10 construct: gene ADORA3
T10 sequence (P0DMS8 whole entry): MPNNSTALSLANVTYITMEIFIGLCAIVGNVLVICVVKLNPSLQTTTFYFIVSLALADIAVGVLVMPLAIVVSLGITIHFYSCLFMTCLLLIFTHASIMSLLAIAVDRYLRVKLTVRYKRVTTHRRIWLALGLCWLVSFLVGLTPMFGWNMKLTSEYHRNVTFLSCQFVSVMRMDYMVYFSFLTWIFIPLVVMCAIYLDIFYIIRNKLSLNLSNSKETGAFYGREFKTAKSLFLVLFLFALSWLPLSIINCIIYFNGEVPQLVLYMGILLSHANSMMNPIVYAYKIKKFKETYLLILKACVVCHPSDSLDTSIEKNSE
Protocol: as §1

GABAA1 (a1.b2.g2) = molecular target: T11, GABAA1 (a1.b2.g2) (Homo sapiens, UniProt P14867+P18507+P47870); conditions: agonist radioligand
T11 construct: gene GABRA1; a1.b2.g2
Protocol: as §1

M4 = molecular target: T12, M4 (Homo sapiens, UniProt P08173); conditions: antagonist radioligand
T12 construct: gene CHRM4
T12 sequence (P08173 whole entry): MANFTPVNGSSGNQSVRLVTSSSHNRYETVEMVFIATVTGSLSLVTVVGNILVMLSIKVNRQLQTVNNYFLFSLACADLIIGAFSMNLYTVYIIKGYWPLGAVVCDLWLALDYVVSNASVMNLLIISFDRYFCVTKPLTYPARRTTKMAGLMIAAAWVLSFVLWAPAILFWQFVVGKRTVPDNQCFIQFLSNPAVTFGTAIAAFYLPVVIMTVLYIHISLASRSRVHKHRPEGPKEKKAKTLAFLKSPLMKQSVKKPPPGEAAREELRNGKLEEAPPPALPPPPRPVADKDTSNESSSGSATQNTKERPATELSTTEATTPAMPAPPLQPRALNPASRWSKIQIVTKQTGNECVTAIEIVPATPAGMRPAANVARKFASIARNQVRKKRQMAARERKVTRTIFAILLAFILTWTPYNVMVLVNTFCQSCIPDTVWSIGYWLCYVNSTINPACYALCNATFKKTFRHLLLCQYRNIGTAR
Protocol: as §1

5-HT transporter = molecular target: T13, 5-HT transporter (Homo sapiens, UniProt P31645); conditions: antagonist radioligand
T13 construct: gene SLC6A4
T13 sequence (P31645 whole entry): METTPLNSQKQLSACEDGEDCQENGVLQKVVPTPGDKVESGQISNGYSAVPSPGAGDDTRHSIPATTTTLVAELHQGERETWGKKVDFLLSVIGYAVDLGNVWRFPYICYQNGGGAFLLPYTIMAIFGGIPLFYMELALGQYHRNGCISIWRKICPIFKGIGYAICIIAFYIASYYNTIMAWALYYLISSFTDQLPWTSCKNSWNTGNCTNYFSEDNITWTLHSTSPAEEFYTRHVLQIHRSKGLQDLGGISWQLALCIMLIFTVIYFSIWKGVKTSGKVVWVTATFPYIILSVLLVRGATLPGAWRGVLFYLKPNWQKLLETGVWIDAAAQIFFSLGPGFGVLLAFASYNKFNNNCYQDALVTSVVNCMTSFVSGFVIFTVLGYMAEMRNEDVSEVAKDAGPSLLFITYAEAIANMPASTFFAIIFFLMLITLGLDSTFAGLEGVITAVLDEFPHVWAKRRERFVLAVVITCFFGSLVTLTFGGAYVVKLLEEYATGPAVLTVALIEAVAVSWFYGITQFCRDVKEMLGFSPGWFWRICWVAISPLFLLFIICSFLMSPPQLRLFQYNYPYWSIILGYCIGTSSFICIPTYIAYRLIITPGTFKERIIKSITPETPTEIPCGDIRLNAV
Protocol: as §1

H1 = molecular target: T14, H1 (Homo sapiens, UniProt P35367); conditions: antagonist radioligand
T14 construct: gene HRH1
Protocol: as §1

b1 (h) = molecular target: T15, b1 (h) (Homo sapiens, UniProt P08588); conditions: agonist radioligand
T15 construct: gene ADRB1
T15 sequence (P08588 whole entry): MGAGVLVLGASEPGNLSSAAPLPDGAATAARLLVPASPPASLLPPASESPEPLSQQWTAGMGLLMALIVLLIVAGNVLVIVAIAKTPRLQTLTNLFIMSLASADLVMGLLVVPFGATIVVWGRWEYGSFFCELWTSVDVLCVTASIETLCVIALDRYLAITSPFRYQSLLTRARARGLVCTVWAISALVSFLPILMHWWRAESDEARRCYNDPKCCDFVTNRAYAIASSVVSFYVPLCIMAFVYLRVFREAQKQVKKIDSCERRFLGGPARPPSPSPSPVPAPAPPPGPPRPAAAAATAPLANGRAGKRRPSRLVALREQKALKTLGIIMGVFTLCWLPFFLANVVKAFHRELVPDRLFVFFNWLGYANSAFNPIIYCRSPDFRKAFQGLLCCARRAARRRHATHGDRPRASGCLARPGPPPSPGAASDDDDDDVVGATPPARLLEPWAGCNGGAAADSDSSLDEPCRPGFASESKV
Protocol: as §1

5-HT1A = molecular target: T16, 5-HT1A (Homo sapiens, UniProt P08908); conditions: agonist radioligand
T16 construct: gene HTR1A
T16 sequence (P08908 whole entry): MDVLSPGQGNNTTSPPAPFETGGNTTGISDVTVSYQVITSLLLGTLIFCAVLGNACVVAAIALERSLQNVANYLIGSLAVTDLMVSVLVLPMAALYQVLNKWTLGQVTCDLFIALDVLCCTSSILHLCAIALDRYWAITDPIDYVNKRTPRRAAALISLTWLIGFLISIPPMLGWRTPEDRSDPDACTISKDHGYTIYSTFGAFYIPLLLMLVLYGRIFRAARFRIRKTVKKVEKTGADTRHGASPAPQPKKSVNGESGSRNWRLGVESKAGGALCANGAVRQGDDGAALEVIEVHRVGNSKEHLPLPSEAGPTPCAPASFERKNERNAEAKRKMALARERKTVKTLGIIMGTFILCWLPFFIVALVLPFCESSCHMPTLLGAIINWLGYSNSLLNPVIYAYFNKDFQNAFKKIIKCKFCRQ
Protocol: as §1

EP2 = molecular target: T17, EP2 (Homo sapiens, UniProt P43116); conditions: agonist radioligand
T17 construct: gene PTGER2
T17 sequence (P43116 whole entry): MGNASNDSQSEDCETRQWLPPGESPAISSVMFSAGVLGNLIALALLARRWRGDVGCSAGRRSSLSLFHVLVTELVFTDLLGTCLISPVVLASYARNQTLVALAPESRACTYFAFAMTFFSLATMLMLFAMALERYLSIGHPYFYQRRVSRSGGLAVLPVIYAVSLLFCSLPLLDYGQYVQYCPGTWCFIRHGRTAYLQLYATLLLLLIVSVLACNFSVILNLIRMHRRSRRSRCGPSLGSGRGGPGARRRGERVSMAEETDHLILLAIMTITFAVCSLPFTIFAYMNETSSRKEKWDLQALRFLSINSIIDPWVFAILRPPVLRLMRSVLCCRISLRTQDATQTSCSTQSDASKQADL
Protocol: as §1

m (MOP) = molecular target: T18, m (MOP) (Homo sapiens, UniProt P35372); conditions: agonist radioligand
T18 construct: gene OPRM1; MOP
T18 sequence (P35372 whole entry): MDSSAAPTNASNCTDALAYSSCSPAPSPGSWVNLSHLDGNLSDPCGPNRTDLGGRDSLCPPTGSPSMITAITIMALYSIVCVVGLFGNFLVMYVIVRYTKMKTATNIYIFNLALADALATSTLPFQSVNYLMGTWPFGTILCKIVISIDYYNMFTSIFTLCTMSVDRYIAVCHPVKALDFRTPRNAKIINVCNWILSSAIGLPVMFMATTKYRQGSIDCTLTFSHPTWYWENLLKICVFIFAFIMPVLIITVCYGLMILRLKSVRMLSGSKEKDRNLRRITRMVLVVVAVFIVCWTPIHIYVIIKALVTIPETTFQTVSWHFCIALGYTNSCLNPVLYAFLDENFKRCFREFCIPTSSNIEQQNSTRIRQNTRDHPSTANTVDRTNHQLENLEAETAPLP
Protocol: as §1

H2 = molecular target: T19, H2 (Homo sapiens, UniProt P25021); conditions: antagonist radioligand
T19 construct: gene HRH2
Protocol: as §1

Measured: AC50

T1 sequence (P23975 whole entry): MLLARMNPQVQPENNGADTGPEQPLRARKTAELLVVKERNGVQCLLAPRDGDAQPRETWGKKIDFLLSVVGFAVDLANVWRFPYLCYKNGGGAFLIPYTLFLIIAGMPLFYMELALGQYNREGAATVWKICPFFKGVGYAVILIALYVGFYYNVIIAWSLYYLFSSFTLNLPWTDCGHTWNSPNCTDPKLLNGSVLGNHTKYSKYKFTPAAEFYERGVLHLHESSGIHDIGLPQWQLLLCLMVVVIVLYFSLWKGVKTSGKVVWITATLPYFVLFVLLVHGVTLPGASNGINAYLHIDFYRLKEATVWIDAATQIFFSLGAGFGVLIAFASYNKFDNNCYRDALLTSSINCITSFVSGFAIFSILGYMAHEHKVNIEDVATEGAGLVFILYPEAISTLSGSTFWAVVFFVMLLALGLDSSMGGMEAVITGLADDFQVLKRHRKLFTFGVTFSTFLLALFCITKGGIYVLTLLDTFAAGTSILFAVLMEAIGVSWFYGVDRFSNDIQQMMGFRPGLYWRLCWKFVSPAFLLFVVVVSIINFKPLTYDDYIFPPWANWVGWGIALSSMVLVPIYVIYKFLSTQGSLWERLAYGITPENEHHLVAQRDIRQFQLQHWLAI

CC(C)CCN[C@@H]1CCc2cc(O)c(N3CC(=O)NS3(=O)=O)c(F)c2C1 [AC484, ABBV-CLS-484]
> 0.01 mM: all assays above
